Measured values from ChEMBL document CHEMBL1134291, “The synthesis of a prodrug of doxorubicin designed to provide reduced systemic toxicity and greater target efficacy” (J Med Chem, 2001).
*1 amine or outer side, *2 acyl side, *3 side chain or, on linkers, in order; H or OH if unused. Where a SMILES comes first, the peptide text is derived from it. [ ]: non-standard residue; d: D form. The star is where a group is joined. Doxorubicin(3'-N) = COc1cccc2c1C(=O)c1c(O)c3c(c(O)c1C2=O)C[C@@](O)(C(=O)CO)C[C@@H]3O[C@H]1C[C@H](N*)[C@H](O)[C@H](C)O1; Glutaryl = O=C(CCCC(=O)[*:2])[*:1]; Hyp = O=C(O)[C@@H]1C[C@@H](O)CN1; Chg = N[C@H](C(=O)O)C1CCCCC1

Assays:
PSA = assay: Time required for PSA to hydrolyze 50% (t1/2); format: ADME; settings: PSA (enzyme)
DuPro = assay: Concentration required to kill 50% of tumor cells in PSA nonproducing DuPRO human prostate cancer cell line; format: functional, cell-based
LNCaP [1] = assay: Concentration required to kill 50% of tumor cells in PSA producing LNCaP human prostate cancer cell line; format: functional, cell-based
Mus musculus [2] = assay: Maximum nonlethal drug dose which could be administered (ip) to non tumor bearing nude mice for 5 consecutive days; format: functional
LNCaP [3] = assay: Percentage PSA reduction relative to vehicle control following intraperitoneal injection of conjugate dose for 5 consecutive days to nude mice bearing LNCaP tumor xenografts; format: functional, Homo sapiens
Mus musculus [4] = assay: Percentage weight reduction relative to vehicle control following intraperitoneal (ip) injection of conjugate dose for 5 consecutive days to nude mice bearing LNCaP tumor xenografts( 21.5 umol/kg dose); format: functional
Mus musculus [5] = assay: Percentage weight reduction relative to vehicle control following intraperitoneal (ip) injection of conjugate dose for 5 consecutive days to nude mice bearing LNCaP tumor xenografts (2.8 umol/kg dose); format: functional

Row | Molecule | half-life (PSA) [h] | other results
1 | COc1cccc2c1C(=O)c1c(O)c3c(c(O)c1C2=O)C[C@@](O)(C(=O)CO)C[C@@H]3O[C@H]1C[C@H](NC(=O)[C@H](CC(C)C)NC(=O)[C@H](CO)NC(=O)[C@H](CCC(N)=O)NC(=O)[C@@H](NC(=O)[C@H](CO)NC(=O)[C@H](C)NC(=O)[C@@H]2C[C@@H](O)CN2C(=O)CCCC(=O)O)C2CCCCC2)[C@H](O)[C@H](C)O1 (Glutaryl-[Hyp]AS[Chg]QSL-{Doxorubicin(3'-N)}) [listing 1 of 2 here] | 0.5 | EC50 (DuPro): > 100000 nM; EC50 (LNCaP [1]): 5000 nM
2 | COc1cccc2c1C(=O)c1c(O)c3c(c(O)c1C2=O)C[C@@](O)(C(=O)CO)C[C@@H]3O[C@H]1C[C@H](NC(=O)[C@H](CC(C)C)NC(=O)[C@H](CO)NC(=O)[C@H](CCC(N)=O)NC(=O)[C@@H](NC(=O)[C@H](CO)NC(=O)[C@H](C)NC(=O)[C@@H]2C[C@@H](O)CN2C(=O)CCCC(=O)O)C2CCCCC2)[C@H](O)[C@H](C)O1 (Glutaryl-[Hyp]AS[Chg]QSL-{Doxorubicin(3'-N)}) [listing 2 of 2 here] | – | MTD (Mus musculus [2]): 28.6 µM/kg; Reduction (LNCaP [3]): 95%; Reduction (Mus musculus [4]): 87%
3 | COc1cccc2c1C(=O)c1c(O)c3c(c(O)c1C2=O)C[C@@](O)(C(=O)CO)C[C@@H]3O[C@H]1C[C@H](N)[C@H](O)[C@H](C)O1 [DOXORUBICIN] | – | EC50 (DuPro): 1800 nM; EC50 (LNCaP [1]): 700 nM; MTD (Mus musculus [2]): 2.8 µM/kg; Reduction (LNCaP [3]): 16%; Reduction (Mus musculus [5]): 6%
4 | Ac-ANKASYQSASTE-NH2 | 0.833 | –
5 | Ac-ANKASYQSSSTE-NH2 | 1.75 | –
6 | Ac-ANKISYQSAKTE-NH2 | 2.08 | –
7 | Ac-ANKISYQSASTE-NH2 | 2.42 | –
8 | Ac-ANKISYQSSKTE-NH2 | 1.83 | –
9 | Ac-ANKISYQSSSTE-NH2 | > 4 | –
10 | Ac-ANKISYYSSSTE-NH2 | 2.5 | –
11 | H-ANKISYQSS-OH | > 4 | –
12 | H-ANKISYQSSSTE-OH | 1.75 | –
13 | H-SQKANKISYQSSSTEERRLHYGENG-OH | 0.417 | –
14 | H-SYQSSSTE-OH | > 3 | –
